Results on two compounds are retold here after publication PMC10329608, “Investigation of the structure-activity relationship at the N-terminal part of minigastrin analogs” (EJNMMI Research, 2023).

One data set addresses T1, CCK-2R (Rattus norvegicus, UniProt P30553).
T1 construct: endogenous in cells; host or cells: AR42J cells
T1 sequence (P30553 1-452): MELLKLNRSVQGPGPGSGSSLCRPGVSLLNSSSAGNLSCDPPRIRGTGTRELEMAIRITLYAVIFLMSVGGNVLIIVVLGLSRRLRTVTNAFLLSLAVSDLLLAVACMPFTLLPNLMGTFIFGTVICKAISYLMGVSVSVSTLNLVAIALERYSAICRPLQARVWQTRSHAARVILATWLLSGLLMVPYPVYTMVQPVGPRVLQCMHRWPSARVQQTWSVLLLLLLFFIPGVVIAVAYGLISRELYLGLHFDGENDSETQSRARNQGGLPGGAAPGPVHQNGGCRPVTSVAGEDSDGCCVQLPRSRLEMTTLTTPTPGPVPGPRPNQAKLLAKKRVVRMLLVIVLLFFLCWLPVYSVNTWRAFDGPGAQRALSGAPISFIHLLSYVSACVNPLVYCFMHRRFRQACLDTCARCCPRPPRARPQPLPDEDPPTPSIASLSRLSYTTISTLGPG
Put plainly: Competitive binding (IC50) on AR42J cells against [177Lu]Lu-DOTA-PP-F11N. The following applies: AR42J cells; [177Lu]Lu-DOTA-PP-F11N as reference; 3 h, 37 °C; values in text; read-out: IC50 (CCK-2R affinity). The procedure:
IC50 values of all compounds were determined according to a previously published procedure. In brief, competitive binding studies were performed via co-incubation of increasing concentrations of the peptide of interest (10^−10 to 10^–4 M, in triplicate) together with the reference compound [^177Lu]Lu-DOTA-PP-F11N (0.3 pmol/well) on AR42J cells (2 × 10^5 cells per 1 mL/well) at 37 °C for 3 h. Table S1. CCK-2R affinity and lipophilicity data of the compounds evaluated. Affinity data were determined on AR42J cells (2.0 x 10^5 cells/well/mL) and [^177Lu]Lu-DOTA-PP-F11N (0.3 pmol/well) as radiolabeled reference (3 h, 37°C, RPMI 1640, 5 mM L-Gln, 5 mL non-essential amino acids (100x), 10% FCS + 5% BSA (v/v)).

Data set [1] is classed as physicochemical. The following applies: pH 7.4. The protocol: Lipophilicity (depicted as n-octanol-phosphate-buffered saline solution (PBS, pH = 7.4) distribution coefficient, logD7.4) of ^177Lu-labeled minigastrin analogs was evaluated as previously published.
In a further data set the test system is A431-CCK-2R tumor. The following applies: mouse, in vivo, 1 h; cited from earlier work.

As a reminder, the IC50 is the point on the concentration scale where inhibition reaches its midpoint. Take `CCCC[C@@H](C(=O)N[C@@H](CC(=O)O)C(=O)N[C@@H](Cc1cccc2ccccc12)C(N)=O)N(C)C(=O)[C@H](Cc1c[nH]c2ccccc12)NC(=O)CNC(=O)[C@H](Cc1ccc(O)cc1)NC(=O)[C@H](C)NC(=O)[C@@H](CCC(=O)O)NC(=O)CN1CCN(CC(=O)O)CCN(CC(=O)O)CCN(CC(=O)O)CC1` [[^natLu]Lu-DOTA-MGS5, DOTA-D-Glu-Ala-Tyr-Gly-Trp-(N-Me)Nle-Asp-1-Nal-NH2, metal not drawn, reference compound]: the IC50 on CCK-2R is 5.2 ± 0.8 nM. For the same compound, in data set [1], the logD7.4 entry is given as “− 2.21 ± 0.08”.

For “DOTA-D-Glu-Ala-Tyr-Gly-Trp-(N-Me)Nle-Asp-1-Nal-NH2 [[^68 Ga]Ga-DOTA-MGS5]”, in the data set with A431-CCK-2R tumor, the “activity levels in the tumor” value is 23.3 ± 4.7 %ID/g and the “activity uptake in the kidneys” value is listed as 5.7 ± 1.4 %ID/g.
